Measured values taken from paper PMC8176454, “Synthesis and Assessment of Novel Probes for Imaging Tau Pathology in Transgenic Mouse and Rat Models” (ACS Chemical Neuroscience, 2021).

Target: T1, 4R tau151-391 aggregates in brainstem sections from SHR72 rats (Homo sapiens, UniProt P10636)
T1 construct: tissue AXON Neuroscience; host or cells: brain (brainstem) sections of SHR72 transgenic rats
Assay: Binding to SHR72 transgenic rat brain sections
Settings: 50 μM, colocalization with AT8
From the text: Since future PET studies for development of these compounds would require kinetic modeling for their assessment in vivo, we tested their performance in tau transgenic rats. Rat brains and blood volumes are about 6- and 10-fold larger, respectively, than those of mice and thus enable higher resolution imaging and ample volume for repeated blood sampling. We used two transgenic rat lines expressing human-truncated tau comprising the proline-rich region and either three microtubule binding domains (3R tau151-391, SH24)[28] or four microtubule binding domains (4R tau151-391, SHR72).[29] […] However, compared to the SHR24 rat brain sections, there were less inclusions detected, which seems to indicate the compounds have preferential binding toward the three repeat forms of tau in these rat models.
Fresh frozen rat brain coronal sections (10 μm) were stored on slides at −80 °C until use. Sections were fixed in ice cold acetone for 10 min and air-dried and then rehydrated twice for 5 min with buffer (10 mM PBS with 0.1% Triton X-100) before application of 5% bovine serum albumin for 1 h and two more 5 min buffer washes. […] The green autofluorescence of PBB3 and LM229 was visualized using a 488 nm filter and fluorescence of AT8 using a 568 nm filter on a Leica DM6000 microscope.

T1 sequence (P10636 468-708): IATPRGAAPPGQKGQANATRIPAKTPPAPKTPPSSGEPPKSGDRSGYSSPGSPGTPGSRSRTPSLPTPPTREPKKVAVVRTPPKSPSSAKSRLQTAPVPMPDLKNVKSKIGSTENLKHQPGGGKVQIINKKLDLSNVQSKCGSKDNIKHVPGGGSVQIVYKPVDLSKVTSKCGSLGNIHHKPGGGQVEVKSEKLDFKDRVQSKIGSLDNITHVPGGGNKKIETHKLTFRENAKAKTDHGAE

In the case of `CNc1ccc(/C=C/C=C/c2nc3cc(F)c(O)cc3s2)cn1` [LM229], the “Binding to tau in SHR72 rat brain sections” value is reported as “bound to tau in brain sections from SHR72 rats”.
